According to US9771377B2, “Synthesis of FR901464 and analogs with antitumor activity” (University of Pittsburgh—Of the Commonwealth System of …, priority 2012, dated 2017):
Like-named read-outs stand apart in the source and are kept apart here. One block for each molecule: values may come before it.

Legend:
HCT116 = test: Growth inhibition assay (MTS), HCT116; type: cell-based
Description: (§1) Meayamycin, 4-TEGylated meayamycin, and 4-TEGylated FR901464 (right fragment) compounds were produced using the above protocols. The compounds were dissolved in dimethyl sulfoxide (DMSO) as 10 mM stocks and stored at −20° C. Prior to assays being performed, aliquots were thawed at room temperature and dilutions were prepared in RPMI 1640 medium containing 2% DMSO at 2×the desired concentration prior to addition to the cells.
(§2) The cells were grown at 37° C. in an atmosphere containing 5% carbon dioxide in corning cell culture flasks (25 cm^2) in RPMI 1640 cell culture medium containing 10% fetal bovine serum, 1% Penicillin/Streptomycin, and 1% L-Glutamine.
(§3) Cells were plated in 96 well plates at an initial density of 2,000 cells per well in 100 μL of medium and were incubated for 24 hours prior to compound addition. […] The compound was added to the cells at 2× the desired concentration in 100 μL cell culture medium. The cells were then incubated for an additional 3 to 5 days. Cell proliferation was measured using a commercial MTS solution (20 μL per well). The absorbance (at 490 nm and 630 nm) was measured by a Spectromax M2 plate reader (Molecular Devices). Each concentration treatment was done in quadruplets and the final numbers were averaged.

PCI 13 = test: Growth inhibition assay (MTS), PCI 13; type: cell-based; conditions: 3 to 5 days
Description: as §1, §2, §3

JHU 012 = test: Growth inhibition assay (MTS), JHU 012; type: cell-based; conditions: 3 to 5 days
Description: as §1, §2, §3

cancer cell = test: Cancer cell antiproliferative activity (background statement); type: cell-based
Source text: This pharmacological profile for FR901464 has drawn considerable interest, focusing on its potential as an anticancer agent.

HEK-293-II = test: Growth inhibition assay (MTS), HEK-293-II; type: cell-based
Description: as §1, §2, §3

MDA-MB-231 = test: Growth inhibition assay (MTS), MDA-MB-231; type: cell-based; conditions: 3 to 5 days
Description: as §1, §2, §3

A549 = test: Growth inhibition assay (MTS), A549; type: cell-based; conditions: 3 to 5 days
Description: as §1, §2, §3

MCF-7 = test: Growth inhibition assay (MTS), MCF-7; type: cell-based
Description: as §1, §2
Cells were plated in 96 well plates at an initial density of 2,000 cells per well in 100 μL of medium and were incubated for 24 hours prior to compound addition. Serial two-fold dilutions were used in this experiment from 100 nM to 0.000191 nM. The compound was added to the cells at 2× the desired concentration in 100 μL cell culture medium. The cells were then incubated for an additional 3 to 5 days. Cell proliferation was measured using a commercial MTS solution (20 μL per well). The absorbance (at 490 nm and 630 nm) was measured by a Spectromax M2 plate reader (Molecular Devices). Each concentration treatment was done in quadruplets and the final numbers were averaged.

tumor = conditions: mouse model; cited from earlier work
MCF-7 cells = MCF-7 cells at 20 nM; cited from earlier work
[1] = system: pre-mRNA splicing in HEK-293-II cells; test: HEK-293-II cell-based splicing inhibition assay (luciferase, RT-PCR)
Description: Splicing inhibition by PEGylated meayamycin was evaluated using the published HEK-293-II cell-based assay. In short, luciferase expression increases when pre-mRNA splicing is inhibited. Yang Gao et al., published online at Chem Bio Chem. Nov. 22, 2012 (DOI: 10.1002/cbic.201200558). […] (FIG. 1). Pre-mRNA splicing inhibition by 4-TEGylated meayamycin was examined in HEK-293-II cells over 72 h. The splicing inhibition, as manifested by the luciferase activity, in the 4-TEGylated meayamycin-treated cells persisted for 48 h, which was different from that in the meayamycin-treated cells. (FIG. 2).

[2] = HEK-293-II, 3 to 5 days, MTS, read-out: GI50

GI50 (HCT116; Homo sapiens, HCT-116, HCT116, 3 to 5 days, MTS, read-out: GI50): 2200 nM
IC50 (HCT116; Homo sapiens, HCT-116, read-out: GI150, inhibition of HCT-116 proliferation): 1500 nM
GI50 (MDA-MB-231; Homo sapiens): 1500 nM
GI50 (A549; Homo sapiens): 2200 nM
Compound: C=C[C@H]1OC(C)(C)C[C@@]2(CO2)[C@@H]1OCCOCCOCCOCCN=[N+]=[N-] [4-TEGylated FR901464 (right fragment)]
GI50 (PCI 13): 3700 nM
GI50 (JHU 012): 2000 nM
cancer cell antiproliferative activity (cancer cell): high cancer cell antiproliferative activity
GI50 (HEK-293-II; [2]): 8900 nM

Compound: CC(=O)O[C@@H](C)/C=C\C(=O)N[C@@H]1C[C@H](C)[C@H](C/C=C(C)/C=C/[C@H]2OC(C)(C)C[C@@]3(CO3)[C@@H]2O)O[C@@H]1C [meayamycin, reference compound]
GI50 (HCT116; HCT116, 3 to 5 days, MTS, read-out: GI50): 0.038 nM
GI50 (PCI 13): 4.8 nM
GI50 (JHU 012): 4.7 nM
GI50 (MCF-7; 3 to 5 days): 0.8 nM
GI50 (HEK-293-II; [2]): 7.8 nM
GI50 (MDA-MB-231): 0.07 nM
GI50 (A549): 0.26 nM

Compound: C=C[C@H]1OC(C)(C)C[C@@]2(CO2)[C@@H]1O [right fragment without PEGylation, (3R,4R,5R)-7,7-dimethyl-5-vinyl-1,6-dioxaspiro[2.5]octan-4-ol]
antiproliferation activity (HCT116; even at 200 μM): no antiproliferation activity

Compound: CC(=O)O[C@@H](C)/C=C\C(=O)N[C@@H]1C[C@H](C)[C@H](C/C=C(C)/C=C/[C@H]2O[C@](C)(O)C[C@@]3(CO3)[C@@H]2O)O[C@@H]1C [FR901464]
concentrations at which antitumor activity is exhibited (tumor): 0.056 to 0.18 mg/kg
mRNA levels of p53, p21, c-myc, and E2F-1 (MCF-7 cells): lowers the mRNA levels

Compound: CC(=O)O[C@@H](C)/C=C\C(=O)N[C@@H]1C[C@H](C)[C@H](C/C=C(C)/C=C/[C@H]2OC(C)(C)C[C@@]3(CO3)[C@@H]2OCCOCCOCCOCCN=[N+]=[N-])O[C@@H]1C [4-TEGylated meayamycin]
GI50 (HCT116; Homo sapiens, HCT-116): 0.1 nM
GI50 (MCF-7; Homo sapiens, MCF7, 3 to 5 days): 2.4 nM
time the splicing inhibition (luciferase activity) persisted ([1]; HEK-293-II cells examined over 72 h, FIG. 2): 48 h
RT-PCR analysis of total RNA: pre-mRNA splicing ([1]; HEK-293-II cells, FIG. 1): inhibited pre-mRNA splicing
IC50 ([1]; HEK-293-II, luciferase, 16-h treatment, average of three independent experiments, read-out: IC150, inhibitory activity towards pre-mRNA splicing): 2.4 nM
GI50 (HEK-293-II): 46 nM

Compound: CC(/C=C/[C@H]1OC(C)(C)C[C@@]2(CO2)[C@@H]1CCCOCCOCCOCCN=[N+]=[N-])=C\C[C@@H]1O[C@H](C)C(NC(=O)/C=C\[C@H](C)OC(=O)N2CCOCC2)C[C@@H]1C (stereo partly shown) [4-TEGylated-FR901464 analog]
cancer cell antiproliferative activity (cancer cell): high cancer cell antiproliferative activity
